From US20150113681A1, “COMPOSITION AND METHOD FOR ENHANCING PLANT TRANSFORMATION” (SYNGENTA PARTICIPATIONS AG, priority 2013, published 2015)

Key:
maize immature embryos [1] = assay: Maize transformation, bialaphos/PAT selection with differing sucrose levels in selection media; format: cell-based, Zea mays (corn)
Protocol: (§1) Transformation of immature maize embryos is performed essentially as described in Negrotto et al., (2000) Plant Cell Reports 19: 798-803. Various media constituents described therein can be substituted. For example, the selectable marker gene and the selection agent can be modified, as in the examples below.
(§2) The genes used for transformation are cloned into a vector suitable for maize transformation as described above. Vectors used contain the either the PAT gene or the EPSPS gene as a selectable marker. PAT confers resistance to bialaphose, and EPSPS confers resistance to glyphosate.
(§3) Preparation of Agrobacterium tumefaciens: Agrobacterium strain LBA4404 (pSB1) containing the plant transformation plasmid is grown on YPC (yeast extract (5 g/L), peptone (10 g/L), NaCl (5 g/L), CaCl2.2H2O (1 g/L), 15 g/l agar, pH 6.8) solid medium for 2 to 4 days at 28° C. Approximately 0.8×10^9 Agrobacteria are suspended in inoculation medium supplemented with 100 μM acetosyringone (As) Bacteria are pre-induced in this medium for about 20 to 240 minutes.
(§4) Inoculation: Immature embryos from are excised from 8-12 day old ears after pollination. The isolated mixture of endosperms with immature embryos are suspended in the inoculation medium and poured through a 1500 um sieve after shaking. The immature embryos are captured on a 380 um sieve after pouring the suspension through. Immature embryos are gently removed from the sieve and suspended in Agrobacterium suspension on co-cultivation medium using a sterile scalpel blade after 5 min 45° C. heat shock. The immature embryo suspension is spread evenly on the co-cultivation medium and the excess Agrobacterium suspension is removed using a sterile transfer pipette and filter papers. The immature embryos are then spaced and flipped with round scutellum side up and then cultured in the dark for two to three days. Subsequently, between 20 and 45 embryos per petri plate are transferred to the medium AW5Dicamba100Ti and cultured in the dark for 28° C. for 10-14 days for callus induction.
Following co-cultivation and callus induction, the transformed calli are step-wise selected on MS medium or MS medium containing alternating concentrations of sucrose (5, 10 and 20, g/l) and bialaphos (5 and 7.5 mg/l) as indicated in Table 1. The controls comprise calli selected on MS medium supplemented with 20 g/l sucrose and 5 or 7.5 mg/l bialaphos for 4 to 6 weeks at 2 to 3 week intervals.
In a first selection period referred to in Table 1 as 51, about 10-20 calli are transferred from callus induction medium comprising 30 g/L sucrose onto 51 medium MS medium contained 5 g/l sucrose and 7.5 mg/l bialaphos and cultured for approximately 2 weeks at 28° C. in the dark. Each callus was originated from an immature embryo. For the second selection period, referred to in Table 1 as S2, about 9 to 10 calli of 51 are transferred to each plate containing S2 medium comprising 10 g/l sucrose and 7.5 mg/l bialaphose and then cultured for approximately 2 weeks at 28° C. in dark. For the third selection period referred to as S3, 9 to 10 calli are transferred from each S2 plate to S3 medium contained 20 g/l sucrose and 5 mg/l bialaphos and cultured for approximately 2 weeks at 28° C. in dark.
In another embodiment of the invention, in the first selection period S1 about 10 to 20 calli from each plate were transferred from callus induction medium comprising 30 g/L sucrose onto S1 medium containing 10 g/L of sucrose and 7.5 mg/l bialaphos and cultured for approximately 3 weeks at 28° C. in the dark. Each callus was originated from an immature embryo. 9 to 10 calli per plate were transferred from the S1 medium to S3 medium containing 20 g/L of sucrose and cultured for 2 weeks at 28° C. in dark. […]

sugarcane callus = assay: Sugarcane transformation, glyphosate/EPSPS selection with differing sucrose levels in selection media; format: cell-based, sugarcane (Saccharum)
Protocol: The method of the present invention includes embryogenic responses initiated and/or cultures established from sugar cane young leave rolls by culturing on callus induction medium. Established embryogenic cultures were weighted, and then inoculated and co-cultivated with the Agrobacterium tumefaciens strain EHA101 (Agrobacterium) containing the desired vector construction. Agrobacterium was cultured from glycerol stocks on solid YPC medium (100 mg/L spectinomycin and any other appropriate antibiotic) for about two days at 28° C. Agrobacterium is re-suspended in liquid MS-D2 medium. The Agrobacterium culture was diluted to an OD600 of 0.3-0.4 and acetosyringone is added to a final concentration of 400 uM. Acetosyringone was added before mixing the solution with the sugar cane cultures to induce Agrobacterium for DNA transfer to the plant cells. For inoculation, the cultures were immersed in the bacterial suspension. The liquid bacterial suspension is removed and the inoculated cultures were placed on empty plate for co-cultivation and incubated at 22° C. for two days. The cultures were then transferred to callus induction medium with Ticarcillin (400 mg/liter) to inhibit the growth of Agrobacterium and cultured for 4-10 days at 28° C. in dark. Referring to Table 3 below, for constructs utilizing the EPSPS selectable marker gene, cultures are transferred to selection S1 medium containing glyphosate as the selection agent and 400 mg/liter Ticarcillin and cultured for 3-4 weeks in the dark. For different treatments, the concentration of sucrose varied from 0 to 30 g/l and glyphosate level varied from 0.1 to 5 mM. […] Resistant colonies were then transferred to regeneration medium, and grown in the dark for 7 days, and then moved to the light growth room for 14 days. Regenerated shoots were transferred Rooting media for 3-4 weeks and then moved to the greenhouse when they are large enough and have adequate roots. Plants are transplanted to soil in the greenhouse (To generation), and grown to maturity.

maize immature embryos [2] = assay: Maize transformation, glyphosate/EPSPS selection with differing sucrose levels in selection media; format: cell-based, Zea mays (corn); details: glyphosate selection
Protocol: as §1, §2, §3, §4
Following co-cultivation and callus induction, the transformed calli are step-wisely selected on MS medium or MS medium contained differing concentrations of sucrose (5, 10 and 20, g/l) and glyphosate (2 mg/l) as indicated in Table 2.
In one embodiment of the present invention, in an incubation selection period referred to in Table 2 as S1, 10-20 calli from callus induction medium were transferred onto selection medium S1 and cultured for approximately 2 weeks at 28° C. in the dark. Each callus is originated from an immature embryo.
For the selection period referred to as S2, about 9 to 10 calli cultured in selection step S1 were transferred to each plate containing selection medium S2 and then cultured for approximately 2 weeks at 28° C. in dark.
For the selection period referred to as S3, about 9 to 10 calli cultured in selection period S2 were transferred to selection medium of selection period S3 containing 20 g/l sucrose and 2 mM glyphosate. and cultured for approximately 2 weeks at 28° C. in the dark.
In another embodiment and referring to Table 2, about 10 to 20 calli per plate from callus induction medium were transferred onto selection medium of selection period S1. and cultured for approximately 2-3 weeks at 28° C. in the dark. Each callus was originated from an immature embryo. About 9 to 10 calli per plates were transferred to selection medium of selection period S2. and cultured for approximately 2 weeks at 28° C. in the dark.
Regeneration of Transformed Plants: Glyphosate-resistant embryogenic callus were selected under dissecting microscope and 4 embryogenic calli per plate were transferred to regeneration medium. and cultured for approximately 2 weeks at 28° C. in the dark. The cultures were subsequently transferred to a light room for 14 days at 25° C. with a 16 hour photoperiod. […]

[3] = control, 20 g/L sucrose, bialaphos selection

SMILES: OC[C@H]1O[C@@](CO)(O[C@H]2O[C@H](CO)[C@@H](O)[C@H](O)[C@H]2O)[C@@H](O)[C@@H]1O [sucrose]
- regeneration frequency (maize immature embryos [1]; 5 and 10 g/L sucrose in S1 bialaphos selection): more than 65%
- transformation frequency increase compared to the control (maize immature embryos [1]; 5 g/L sucrose in S1 bialaphos selection vs 20 g/L control): 3.1 fold
- transformation frequency (maize immature embryos [1]; 5 g/L sucrose in bialaphos selection media, first round of selection (S1)): 23.5%
- escape rate (maize immature embryos [1]; 5 g/L sucrose, bialaphos selection): 2.4%
- transformation frequency increase compared to the control (maize immature embryos [1]; 10 g/L sucrose in S1 bialaphos selection vs 20 g/L control): 2.2 fold
- transformation frequency (maize immature embryos [1]; 10 g/L sucrose in bialaphos selection media, first round of selection (S1)): 16.9%
- escape rate (maize immature embryos [1]; [3]): 11.8%
- regeneration frequency (maize immature embryos [1]; [3]): 37.4%
- transformation frequency (maize immature embryos [1]; [3]): 7.6%
- transformation frequency (sugarcane callus; altering sucrose level and adjusting glyphosate concentration in step-wise selection): > 7 % per gram fresh tissue
- recovery of transgenic plants (sugarcane callus; standard control, MS medium with 30 g/l sucrose and 3 mM glyphosate): no transgenic plants were recovered
- transformation frequency (sugarcane callus; sucrose concentration reduced to 5 g/l in selection medium): 2.4 % per gram of fresh tissues
- transformation frequency (sugarcane callus; sucrose concentration reduced to 10 and 15 g/l): improved
- regeneration frequency (maize immature embryos [2]; sucrose 5 g/L in S2 followed by 20 g/L in S3): 87.4%
- frequency of independent stable transgenic events (transformation frequency) (maize immature embryos [2]; sucrose 5 g/L in second round (S2) followed by 20 g/L in third round (S3)): 29.5%
- regeneration frequency (maize immature embryos [2]; sucrose 10 g/L in S2 followed by 20 g/L in S3): 86.4%
- frequency of independent stable transgenic events (maize immature embryos [2]; sucrose 10 g/L in second round (S2) followed by 20 g/L in third round (S3)): 18.3%
- frequency of independent stable transgenic events (maize immature embryos [2]; negative control, standard sucrose concentration 20 g/L): 4.8%
- regeneration frequency (maize immature embryos [2]; negative control, sucrose 20 g/L): 7.9%
